Four substances from patent US6479460B1, “Synthetic peptides and pseudopeptides having osteogenic activity and pharmaceutical compositions containing the same” (Yissum Research Development Company of the Hebrew …, priority 1996, dated 2002) can be followed below.

In assay [1] the test system is osteoblastic MC3T3 E1 cells. Put plainly: Proliferation assay, osteoblastic MC3T3 E1 cells. The class given is cell-based. The note with it: for analog concentration evoking the peak inhibitory response / anti-proliferative activity (in words): absence of exogenous OGP, FIG. 8; for Relative in vitro potency (95% confidence limit) MC3T3 E1 cells: analog concentration 10^−13M, mean cell number relative to positive control OGP(1-14) = 1.00. The source says:
(§1) Some of the analogs were subjected to a dose response analysis.

Assay [2] concerns osteoblastic MC3T3 E1 cells. Nature of the assay: Inhibition of stimulatory effect of optimal OGP dose on MC3T3 E1 cells (FIG. 7). The class given is cell-based. The note with it: cultures treated with 10^−13M synthetic OGP(1-14) plus antagonist. The method, then:
All other cultures were treated with 10^−13M synthetic OGP(1-14) (SEQ ID NO: 1) and the indicated dose of antagonist. Data are mean±SE obtained in three culture wells per condition.
(§2) The effect of OGP analogs on osteoblastic MC3T3 E1 and fibroblastic NIH 3T3 cell proliferation was measured as before [Bab, I., et al (1992) EMBO J. 11:1867]. Some of the analogs were subjected to a dose response analysis. Otherwise the analog concentration was 10^−13M and 10^−11M in the MC3T3 E1 and NIH3T3 cell cultures, respectively. The mean cell number in triplicate culture wells was expressed as percent of a positive control triplicate dosed with OGP(1-14) (SEQ ID NO: 1). Experiments testing one dose per cell line were repeated at least four times and the activity of individual analogs expressed as the mean of results and 95% confidence limit obtained in these repetitive experiments.

In assay [3] the test system is fibroblastic NIH 3T3 cells. Nature of the assay: Proliferation assay, fibroblastic NIH 3T3 cells. The assay is classed as cell-based. The note with it: analog concentration 10^−11M; mean cell number relative to positive control OGP(1-14) = 1.00.
Excerpt: as §1

Assay [4] has as its system ovariectomized rats. Put plainly: Number of bone marrow derived osteoblastic colonies from ovariectomized rats. The assay is classed as in vivo, Sabra rats. To be noted: OVX rats, 100 ng/day/rat subcutaneous daily for eight weeks, FIG. 6. As to the method: Twenty five female Sabra rats weighing 250 g each were subjected to bilateral ovariectomy (OVX). Additional five control animals underwent sham OVX. All animals were left untreated for 30 days. Then the OVX animals were divided into five groups, each consisting of five rats. All animals were injected subcutaneously in the nape daily for eight weeks with following solutions: One group was given to OGP(10-14) (SEQ ID NO: 61), 100 ng/day/rat. A second group was given desamino[Tyr^10]OGP(10-14) (SEQ ID NO: 4), 100 ng/day/rat. A third group was given c(Tyr-Gly-Phe-Gly-Gly) (SEQ ID NO: 35), 100 ng/day/rat. The fourth group was given retro OGP ([…] (SEQ ID NO: 60), 300 ng/day/rat. All compounds were dissolved in PBS. An additional control OVX group was given the PBS solvent only. After termination of treatment the animals were killed and the femoral and tibial bone marrow from both posterior limbs was pooled and transferred to alpha minimal essential medium (αMEM). Bone marrow cell cultures were set in 35 mm dishes, 10 dishes per animal, as described previously [Rickard, D. J., et al (1994) Biology, 161:218]. The total number of fibroblastic colonies (CFU-f) formed was determined after three weeks in culture. Immediately after, the CFU-f cultures were stained for alkaline phosphates and co-stained for mineral with alizarin-red-S. The alizarin-red-S positive colonies were considered osteoblastic. Their frequency was expressed as their percentage of the total numbers of colonies. The value for each animal was calculated as the mean percentage obtained in the 10 dishes.

The test system of assay [5] is osteoblastic MC3T3 E1 and fibroblastic NIH 3T3 cells. Put plainly: Proliferation assay, text statements not split by cell line. The class given is cell-based. To be noted: for OGP-like proliferative activity (in words): in vitro, compared to OGP(1-14) or parent analog. As to the method:
as §2

In assay [6] the test system is ovariectomized mice. Nature of the assay: Osteogenic effect of OGP analogs in ovariectomized mice. The class given is in vivo, C57B1/6 mice. The note with it: OVX mice, subcutaneous daily for six weeks, proximal tibial metaphysis, FIG. 5. The method, then: Thirty two female C57B1/6 mice weighing 25 gm underwent conventional bilateral ovariectomy (OVX). Additional eight control animals were subjected to sham OVX: the anterior abdominal wall was opened and the ovaries exposed but left intact. All animals were left untreated for 30 days. The OVX animals were then divided into four groups each consisting of eight mice. All animals were injected subcutaneously in the nape daily for six weeks with the following solutions: One group was given OGP(1-14) (SEQ ID NO: 1), 30 ng/day/mouse. A second group received OGP(10-14) (SEQ ID NO: 61), 10 ng/day/mouse. A third group was given desamino[Tyr^10]OGP(10-14) (SEQ ID NO: 4). All compounds were dissolved in phosphate buffered saline (PBS). An additional control OVX group was given the PBS solvent only. One day after termination of treatment the animals were killed and the tibial bones separated, fixed in phosphate buffered formalin and subjected to conventional decalcified histological processing. Sections through the midsagital region of the tibia were stained with Masson trichrome. Bone volume was determined in the secondary spongiosa of the proximal metaphysis in two sections 200-300 μm apart from each other in one tibia from each animal using an automated computerized image analyzer. The value for each animal was the mean reading from the two sections.

[7] abbreviates: listed as [N(CH3)-Tyr^10]OGP(9-14).
[8] abbreviates: listed as c[Tyr-Gly-Phe-Gly-Gly].

Entries after “also recorded” stand apart in the source; their conditions may differ. Where no end group is shown, it is not given here. [ ]: non-standard residue; d: D form. The star is where a group is joined. Desaminotyrosyl = O=C(CCc1ccc(O)cc1)*; NMeY = CN[C@@H](Cc1ccc(O)cc1)C(=O)O

Turning to “Leu-N(CH3)-CH(CH2C6H4(OH))-C(O)-Gly-Phe-Gly-Gly (L[NMeY]GFGG) [N(Me)-[Tyr^10]OGP(9-14)]”, in assay [1], the “analog concentration evoking the peak inhibitory response” value is on record as 10^−13 M, the “anti-proliferative activity (in words)” value is listed as “inhibit osteoblastic MC3T3 E1 cell proliferation dose dependently at low concentrations with reversal of this inhibition at high doses” and the “Relative in vitro potency (95% confidence limit) MC3T3 E1 cells” value is given as −0.34. Besides, the “anti-proliferative activity (in words)” value in assay [1] (setting [7]) is “anti-proliferative activity”. Besides, the “inhibition of stimulation by optimal OGP dose / OGP antagonism (in words)” value in assay [2] is “highly potent OGP antagonist”. For the same substance, the “inhibition of stimulation by optimal OGP dose / OGP antagonism (in words)” value in assay [2] (setting [7]) is reported as “inhibitory effect at low doses”. For the same substance, in assay [3], the “Relative in vitro potency (95% confidence limit) NIH 3T3 cells” value is −0.32.
For “Tyr-Gly-Phe-Gly-Asp (YGFGD) [[Asp^14]OGP(10-14)]”, in assay [1], the “analog concentration evoking the peak inhibitory response” value is reported as 10^−13 M, the “anti-proliferative activity (in words)” value is listed as “anti-proliferative activity; also recorded: inhibit osteoblastic MC3T3 E1 cell proliferation dose dependently at low concentrations with reversal of this inhibition at high doses” and the “Relative in vitro potency (95% confidence limit) MC3T3 E1 cells” value is given as −0.39. For the same substance, the “inhibition of stimulation by optimal OGP dose / OGP antagonism (in words)” value in assay [2] is recorded as “inhibitory effect at low doses”. Further, the “Relative in vitro potency (95% confidence limit) NIH 3T3 cells” value in assay [3] is on record as −0.28.
Turning to c(Tyr-Gly-Phe-Gly-Gly) (YGFGG; cyclic), the “Relative in vitro potency (95% confidence limit) MC3T3 E1 cells” value in assay [1] was found to be 0.79. Besides, the entries for the “reversal of reduction in osteoprogenitor cells / osteoblastic colonies (in words)” value in assay [4] and in assay [4] (setting [8]) were “improved over OGP(10-14)” and “improved in vivo activity”, respectively. Further, the “Relative in vitro potency (95% confidence limit) NIH 3T3 cells” value in assay [3] was found to be 1.12. The “OGP-like proliferative activity (in words)” value in assay [5] is reported as “preserved or slightly improved its in vitro activity”; in assay [5] (setting [8]), “preserves the OGP-like in vitro activity”.
On to “desamino Tyr-Gly-Phe-Gly-Gly ([Desaminotyrosyl]GFGG) [desamino[Tyr^10]OGP(10-14)]”, for which, in assay [1], the “Relative in vitro potency (95% confidence limit) MC3T3 E1 cells” value came out at 0.77. Also, the “reversal of reduction in osteoprogenitor cells / osteoblastic colonies (in words)” value in assay [4] is given as “either similar or superior to the parent oligopeptides; also recorded: either similar or superior to those of OGP(1-14)”. In assay [3], the “Relative in vitro potency (95% confidence limit) NIH 3T3 cells” value came to 0.66. Further, the “reversal of trabecular bone loss (in words)” value in assay [6] is given as “either similar or superior to the parent oligopeptides; also recorded: either similar or superior to those of OGP(1-14)”. For the same substance, the “retention of OGP-like activity” value in assay [5] (summary of Table 1) is listed as “approximately 70%”.
